Data on two molecules can be found in patent US11278547B2 (Strongbridge Dublin Limited, priority 2019, dated 2022).

For one assay, the target named is T1, OCT2 (Homo sapiens, UniProt O15244).
T1 sequence (O15244 1-555): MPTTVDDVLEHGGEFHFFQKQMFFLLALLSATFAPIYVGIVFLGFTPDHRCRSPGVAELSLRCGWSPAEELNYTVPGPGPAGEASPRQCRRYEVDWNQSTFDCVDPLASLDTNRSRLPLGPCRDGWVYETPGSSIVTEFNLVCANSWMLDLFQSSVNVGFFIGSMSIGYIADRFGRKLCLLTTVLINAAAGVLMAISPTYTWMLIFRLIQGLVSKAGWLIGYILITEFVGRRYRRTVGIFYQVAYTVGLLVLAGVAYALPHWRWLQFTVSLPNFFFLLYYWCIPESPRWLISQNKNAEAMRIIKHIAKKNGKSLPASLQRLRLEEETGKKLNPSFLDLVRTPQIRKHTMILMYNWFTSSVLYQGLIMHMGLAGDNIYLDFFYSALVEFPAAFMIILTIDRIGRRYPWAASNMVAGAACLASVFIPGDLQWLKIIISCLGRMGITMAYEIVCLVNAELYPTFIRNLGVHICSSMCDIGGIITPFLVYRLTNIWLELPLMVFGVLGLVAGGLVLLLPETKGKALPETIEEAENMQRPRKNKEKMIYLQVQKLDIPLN

The conditions of assay [1]: Cushing's syndrome patients, reportedly; cited from earlier work.
The next assay has as its target T2, MATE1 (Homo sapiens, UniProt Q96FL8).
T2 sequence (Q96FL8 1-570): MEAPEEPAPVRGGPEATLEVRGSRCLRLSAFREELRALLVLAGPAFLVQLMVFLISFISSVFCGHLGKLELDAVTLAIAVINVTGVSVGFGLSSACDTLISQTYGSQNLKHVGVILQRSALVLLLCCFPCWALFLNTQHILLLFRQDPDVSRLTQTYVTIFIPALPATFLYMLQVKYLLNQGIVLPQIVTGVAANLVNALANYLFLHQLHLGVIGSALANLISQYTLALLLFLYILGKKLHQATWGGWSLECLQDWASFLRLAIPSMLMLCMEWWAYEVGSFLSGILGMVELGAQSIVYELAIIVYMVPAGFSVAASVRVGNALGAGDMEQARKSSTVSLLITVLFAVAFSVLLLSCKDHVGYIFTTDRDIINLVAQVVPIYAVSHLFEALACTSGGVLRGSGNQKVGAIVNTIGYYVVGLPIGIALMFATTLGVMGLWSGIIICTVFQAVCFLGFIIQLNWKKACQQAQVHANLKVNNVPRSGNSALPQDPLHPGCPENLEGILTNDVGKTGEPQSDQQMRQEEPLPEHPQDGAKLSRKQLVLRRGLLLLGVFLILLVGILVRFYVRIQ

A word on the IC50: it is the midpoint of a concentration-inhibition curve. Consider `CC(=O)N1CCN(c2ccc(OCC3COC(Cn4ccnc4)(c4ccc(Cl)cc4Cl)O3)cc2)CC1` (racemic) [Ketoconazole, ketoconazole], for which the IC50 against OCT2 turned out to be 1520 nM; at MATE1, 279 nM. In addition, the “patients in whom hypercortisolism is normalized” value in assay [1] is 30-70%.

Regarding `CC(=O)N1CCN(c2ccc(OC[C@@H]3CO[C@@](Cn4ccnc4)(c4ccc(Cl)cc4Cl)O3)cc2)CC1` (relative stereo) [Levoketoconazole, 2S,4R cis-1-acetyl-4-[4-[[2-(2,4-dichlorophenyl)-2-(1H-imidazol-1-ylmethyl)-1,3-dioxolan-4-yl]methoxyl]phenyl]piperazine], the IC50 against OCT2 is 218 nM; at MATE1, 248 nM.
